Reference: PubChem BioAssay (NCI)
Values joined by “and” are separate entries in the source; they are usually repeats but may differ in a detail not shown here. Identical values can stand only once.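 The compound was tested at five concentrations on cells cultured in 96-well plates, with a 48-hour exposure period. GI50 marks 50% less growth. TGI is the concentration that stops growth completely.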

Assays:
Assay in all cases: NCI-60 cell line screen, 48 h
UACC-62 melanoma = test system: UACC-62 melanoma
K-562 leukemia = test system: K-562 leukemia
LOX IMVI melanoma = test system: LOX IMVI melanoma
RPMI-8226 leukemia = test system: RPMI-8226 leukemia
SR leukemia = test system: SR leukemia
BT-549 breast = test system: BT-549 breast
OVCAR-3 ovarian = test system: OVCAR-3 ovarian
CAKI-1 renal = test system: CAKI-1 renal
UO-31 renal = test system: UO-31 renal
MDA-MB-231 breast = test system: MDA-MB-231 breast
HCC-2998 colon = test system: HCC-2998 colon
SK-MEL-5 melanoma = test system: SK-MEL-5 melanoma
HL-60(TB) leukemia = test system: HL-60(TB) leukemia
HCT-15 colon = test system: HCT-15 colon
NCI-H522 lung = test system: NCI-H522 lung
U251 CNS = test system: U251 CNS
SF-295 CNS = test system: SF-295 CNS
HT29 colon = test system: HT29 colon
HOP-92 NSCLC = test system: HOP-92 NSCLC
IGROV1 ovarian = test system: IGROV1 ovarian
786-0 renal = test system: 786-0 renal
UACC-257 melanoma = test system: UACC-257 melanoma
NCI-H226 lung = test system: NCI-H226 lung
HS 578T breast = test system: HS 578T breast
SK-OV-3 ovarian = test system: SK-OV-3 ovarian
COLO 205 colon = test system: COLO 205 colon
OVCAR-5 ovarian = test system: OVCAR-5 ovarian
TK-10 renal = test system: TK-10 renal
SN12C renal = test system: SN12C renal
MCF7 breast = test system: MCF7 breast
DU-145 prostate = test system: DU-145 prostate
CCRF-CEM leukemia = test system: CCRF-CEM leukemia
SF-539 CNS = test system: SF-539 CNS
SNB-19 CNS = test system: SNB-19 CNS
T-47D breast = test system: T-47D breast
NCI-H460 lung = test system: NCI-H460 lung
A549 NSCLC = test system: A549 NSCLC
OVCAR-4 ovarian = test system: OVCAR-4 ovarian
HOP-62 NSCLC = test system: HOP-62 NSCLC
EKVX NSCLC = test system: EKVX NSCLC
NCI/ADR-RES ovarian = test system: NCI/ADR-RES ovarian
MOLT-4 leukemia = test system: MOLT-4 leukemia
RXF 393 renal = test system: RXF 393 renal
SW-620 colon = test system: SW-620 colon
OVCAR-8 ovarian = test system: OVCAR-8 ovarian
SF-268 CNS = test system: SF-268 CNS
SK-MEL-28 melanoma = test system: SK-MEL-28 melanoma
SNB-75 CNS = test system: SNB-75 CNS
MDA-N = test system: MDA-N
MDA-MB-435 = test system: MDA-MB-435
M14 melanoma = test system: M14 melanoma
MALME-3M melanoma = test system: MALME-3M melanoma
A498 renal = test system: A498 renal
SK-MEL-2 melanoma = test system: SK-MEL-2 melanoma
ACHN renal = test system: ACHN renal
KM12 colon = test system: KM12 colon
NCI-H23 lung = test system: NCI-H23 lung
HCT-116 colon = test system: HCT-116 colon
PC-3 prostate = test system: PC-3 prostate

## O/N=C/C1C(OCc2ccccc2)C(OCc2ccccc2)C(OCc2ccccc2)CN1Cc1ccccc1 (centres undefined)
UACC-62 melanoma
  TGI: 30.5 µM and > 100 µM
K-562 leukemia
  TGI: 36.6 µM and > 100 µM
LOX IMVI melanoma
  TGI: 29.4 µM and > 100 µM
RPMI-8226 leukemia
  TGI: > 100 µM
SR leukemia
  GI50: 8.3 µM and 2 µM
  TGI: > 100 µM
BT-549 breast
  TGI: 37.1 µM
OVCAR-3 ovarian
  GI50: 16.9 µM and 7.69 µM
  TGI: 40.2 µM and > 100 µM
CAKI-1 renal
  TGI: > 100 µM
UO-31 renal
  GI50: 20 µM and 5.22 µM
  TGI: 65.9 µM and > 100 µM
MDA-MB-231 breast
  TGI: 93.7 µM
HCC-2998 colon
  TGI: > 100 µM
SK-MEL-5 melanoma
  TGI: 23.9 µM
HL-60(TB) leukemia
  TGI: 80.4 µM
HCT-15 colon
  GI50: 25.7 µM and 9.77 µM
  TGI: > 100 µM
NCI-H522 lung
  TGI: > 100 µM
U251 CNS
  TGI: 37.5 µM and > 100 µM
SF-295 CNS
  TGI: 29.5 µM and > 100 µM
HT29 colon
  GI50: 10.7 µM and 3.59 µM
  TGI: 78.7 µM and > 100 µM
HOP-92 NSCLC
  GI50: 13.6 µM and 1.99 µM
  TGI: 33.1 µM and 9.16 µM
IGROV1 ovarian
  TGI: 65.9 µM and > 100 µM
786-0 renal
  TGI: 21.1 µM and > 100 µM
UACC-257 melanoma
  GI50: 23.3 µM and 2.45 µM
  TGI: 72.5 µM and 15.7 µM
NCI-H226 lung
  GI50: 13.7 µM and 4.2 µM
  TGI: 33.8 µM and 85.2 µM
HS 578T breast
  GI50: 21.5 µM and 3.75 µM
  TGI: 96.6 µM and 88.5 µM
SK-OV-3 ovarian
  GI50: 22.7 µM and > 100 µM
  TGI: 51.3 µM and > 100 µM
COLO 205 colon
  GI50: 12.3 µM
  TGI: 25.2 µM
OVCAR-5 ovarian
  GI50: 20 µM and 9.34 µM
  TGI: 57.3 µM and > 100 µM
TK-10 renal
  GI50: 22 µM and 3.08 µM
  TGI: 58.8 µM and > 100 µM
SN12C renal
  GI50: 20.6 µM and 4.32 µM
  TGI: 62 µM and > 100 µM
MCF7 breast
  GI50: 9.88 µM and 2.9 µM
  TGI: 40.8 µM and 15.7 µM
DU-145 prostate
  TGI: > 100 µM
CCRF-CEM leukemia
  TGI: 71.2 µM and > 100 µM
SF-539 CNS
  TGI: > 100 µM
SNB-19 CNS
  TGI: > 100 µM
T-47D breast
  TGI: > 100 µM
NCI-H460 lung
  GI50: 8.94 µM and 3.24 µM
  TGI: 32.4 µM and 29.9 µM
A549 NSCLC
  TGI: 25 µM and > 100 µM
OVCAR-4 ovarian
  TGI: > 100 µM
HOP-62 NSCLC
  GI50: 17.8 µM and 45.4 µM
  TGI: 53.1 µM and > 100 µM
EKVX NSCLC
  TGI: > 100 µM
NCI/ADR-RES ovarian
  GI50: 7.12 µM and 22.3 µM
  TGI: 72.5 µM and > 100 µM
MOLT-4 leukemia
  TGI: 31.4 µM
RXF 393 renal
  TGI: 46.1 µM
SW-620 colon
  TGI: > 100 µM
OVCAR-8 ovarian
  TGI: 39.9 µM and > 100 µM
SF-268 CNS
  TGI: > 100 µM
SK-MEL-28 melanoma
  TGI: 44.1 µM and > 100 µM
SNB-75 CNS
  GI50: 11.5 µM and > 100 µM
  TGI: 33.1 µM and > 100 µM
MDA-N
  TGI: 39.3 µM and > 100 µM
MDA-MB-435
  GI50: 14.1 µM and 3.14 µM
  TGI: 33.6 µM and 27.1 µM
M14 melanoma
  GI50: 11.7 µM and 5.68 µM
  TGI: 40.3 µM and > 100 µM
MALME-3M melanoma
  TGI: 97.6 µM and 33.6 µM
A498 renal
  TGI: > 100 µM
SK-MEL-2 melanoma
  TGI: 53.9 µM
ACHN renal
  GI50: 15.2 µM and 4.4 µM
  TGI: 37.4 µM and > 100 µM
KM12 colon
  GI50: 14.4 µM and 2.86 µM
  TGI: 47.2 µM and 19.6 µM
NCI-H23 lung
  GI50: 14.1 µM and 2.78 µM
  TGI: 41.7 µM and 26.6 µM
HCT-116 colon
  TGI: 22.6 µM and > 100 µM

## O=Cc1cn(CCCCCCCCCCCCn2cc(C=O)c3ccccc32)c2ccccc12
UACC-62 melanoma
  TGI: > 100 µM
K-562 leukemia
  TGI: > 100 µM
LOX IMVI melanoma
  TGI: > 100 µM
SR leukemia
  TGI: > 100 µM
BT-549 breast
  TGI: > 100 µM
OVCAR-3 ovarian
  TGI: > 100 µM
CAKI-1 renal
  TGI: > 100 µM
UO-31 renal
  TGI: > 100 µM
MDA-MB-231 breast
  TGI: > 100 µM
HCC-2998 colon
  TGI: > 100 µM
SK-MEL-5 melanoma
  TGI: > 100 µM
HL-60(TB) leukemia
  TGI: > 100 µM
HCT-15 colon
  TGI: > 100 µM
NCI-H522 lung
  TGI: > 100 µM
U251 CNS
  TGI: > 100 µM
SF-295 CNS
  TGI: > 100 µM
HT29 colon
  TGI: > 100 µM
HOP-92 NSCLC
  TGI: > 100 µM
IGROV1 ovarian
  TGI: > 100 µM
786-0 renal
  TGI: > 100 µM
UACC-257 melanoma
  TGI: > 100 µM
NCI-H226 lung
  TGI: > 100 µM
HS 578T breast
  TGI: > 100 µM
SK-OV-3 ovarian
  TGI: > 100 µM
COLO 205 colon
  TGI: > 100 µM
OVCAR-5 ovarian
  TGI: > 100 µM
TK-10 renal
  TGI: > 100 µM
SN12C renal
  TGI: > 100 µM
MCF7 breast
  TGI: > 100 µM
DU-145 prostate
  TGI: > 100 µM
SF-539 CNS
  TGI: > 100 µM
SNB-19 CNS
  TGI: > 100 µM
PC-3 prostate
  TGI: > 100 µM
A549 NSCLC
  TGI: > 100 µM
HOP-62 NSCLC
  TGI: > 100 µM
EKVX NSCLC
  TGI: > 100 µM
NCI/ADR-RES ovarian
  TGI: > 100 µM
MOLT-4 leukemia
  TGI: > 100 µM
RXF 393 renal
  TGI: > 100 µM
SW-620 colon
  TGI: > 100 µM
OVCAR-8 ovarian
  TGI: > 100 µM
SF-268 CNS
  TGI: > 100 µM
SK-MEL-28 melanoma
  TGI: > 100 µM
MDA-N
  TGI: > 100 µM
MDA-MB-435
  TGI: > 100 µM
M14 melanoma
  TGI: > 100 µM
MALME-3M melanoma
  TGI: > 100 µM
A498 renal
  TGI: > 100 µM
SK-MEL-2 melanoma
  TGI: > 100 µM
ACHN renal
  TGI: > 100 µM
NCI-H23 lung
  TGI: > 100 µM
HCT-116 colon
  TGI: > 100 µM
